Measured values from publication PMC8961551, “Potential Anticancer Agents against Melanoma Cells Based on an As-Synthesized Thiosemicarbazide Derivative” (Biomolecules, 2022).

Assays:
[1] = RP-TLC lipophilicity; assay type: physicochemical; details: for RMW (chromatographic lipophilicity parameter): RP-18 plates, methanol-water 65-95%, extrapolated to 0% methanol; for -S TLC (slope of linear equation): Table S3
Experimental: RP-TLC analysis was performed using RP-18 TLC silica gel 60 F254 plates (10 × 20 cm, Merck, Darmstadt, Germany) with a DS-II chromatographic horizontal chamber (CHROMDES, Lublin, Poland). The mobile phase consisted of methanol (POCH, Gliwice, Poland) and water with the following concentrations of methanol: 65–95% (%, v/v), with a concentration change every 5%. After drying, the spots were observed under a UV lamp with a wavelength of 254 nm.

[2] = tested on: catalase (CAT); assay: qRT-PCR relative mRNA expression, CAT; assay type: cell-based, human; details: for CAT expression change: G-361; for Relative mRNA expression level CAT (RQ): G-361, 48 h incubation, RQ = 2^-ΔΔCt, mean ± SD, control 1.016
Experimental: (§1) […] cell line was seeded into 6-well plates in the concentration of 4 × 10^5 cells/well. Thiosemicarbazide derivatives were added when 70–80% of confluence was achieved. After 48 h of incubation, 1 mL of TRIzol™ Reagent (Invitrogen, Carlsbad, CA, USA) was added to lyse the cells. Lysates were centrifuged for 5 min at 12,000× g at 4 °C, and clear supernatants were processed according to the manufacturer’s protocol. Then, reverse transcription was performed using NG dART RT-PCR kit (EURx, Gdańsk, Poland) and a Mastercycler gradient thermocycler (Eppendorf, Hamburg, Germany). Thermal profile of the reaction: 10 min at 25 °C, then 50 min at 50 °C, and 5 min at 85 °C. mRNA levels of the genes DHODH, 18SRNA, and BACT were assessed using TaqMan Fast Advanced Master Mix (ThermoFisher, Waltham, MA, USA). mRNA levels of the following genes: CAT, SOD2,18SRNA TBP were assessed using PowerUp SYBR Green Master Mix (ThermoFisher, Waltham, MA, USA) in a 7500 Fast Real-Time PCR System (ThermoFisher, Waltham, MA, USA). Thermal profile of the reactions performed: 20 s at 95 °C, followed by 40 cycles of 3 s at 95 °C and 30 s at 60 °C. The reaction was carried out in triplicates. Relative expression of the tested genes was determined by qRT-PCR and the ΔΔCt method. The statistical analysis was performed with RQ values (relative quantification, RQ = 2^−∆ΔCt).

[3] = tested on: G-361 melanoma; assay: MTT cytotoxicity, G-361 melanoma; assay type: cell-based, human; details: for cytotoxic to melanoma cells (MTT test): G-361, concentration range used; for IC50: MTT test, 24 h treatment, G-361 melanoma
Experimental: Biological studies were performed on human malignant melanoma G-361 (ATCC CRL-1424) cell lines and human fibroblast BJ (ATCC® CRL-2522™) cell lines purchased from the American Type Culture Collection (ATCC, Manassas, VA USA). The G-361 cell lines were maintained in McCoy’s medium (Corning, NY, USA), and the fibroblast BJ cell line was cultured in EMEM (Corning, NY, USA). All media were supplemented with 10% heat-inactivated fetal bovine serum (PAN-Biotech, Aidenbach, Germany), 100 U/mL penicillin, 100 μg/mL streptomycin and 0.25 μg/mL amphotericin B (Sigma-Aldrich, St. Louis, MO, USA). Cultures were maintained at 37 °C in a humidified atmosphere of 95% air and 5% CO2. The experiments were performed using cells from passage 5 to 10.
The cytotoxicity of the new compounds was evaluated against both the G-361 and BJ cell lines. Cells were seeded into 96-well plates at a density of 3 × 10^4 cells/well and 2 × 10^4 cells/well. After 24 h of incubation, when 70–80% confluence was reached, the culture medium was removed and replaced with the fresh one containing the tested compounds in the concentration range of 10, 25, 50, 75, 100, 125 and 250 μM. Cells were cultured at 37 °C in the presence of 5% air with CO2 for another 24 h. The cytotoxicity of the test compounds was evaluated by the MTT colorimetric assay, based on the ability of live cells to convert yellow soluble tetrazolium salts (3-[4,5-dimethylthiazol-2-yl]- 2,5-diphenyltetrazolium bromide, MTT) to purple insoluble formazan by cellular dehydrogenase. After 24 h of incubation with solutions of the test compounds, 4 mg/mL MTT solution (Thermo Scientific, Waltham, MA, USA) was added to the cell cultures and incubation was continued for 4 h at 37 °C. The MTT medium was then removed, and the resulting crystals were dissolved in 200 µL of DMSO. The solution was measured for absorbance at 570 nm using a Power Wave xs spectrophotometric plate reader, BioTek Instruments (Winooski, VT, USA). The experiment was performed three times with three replicates for each concentration. IC50 values were determined using the AAT Bioquest IC50 calculator.

[4] = tested on: dihydroorotate dehydrogenase (DHODH); assay: qRT-PCR relative mRNA expression, DHODH; assay type: cell-based, human; details: G-361, 48 h incubation, RQ = 2^-ΔΔCt, mean ± SD, control 1.000
Experimental: as §1

[5] = tested on: superoxide dismutase (SOD2); assay: qRT-PCR relative mRNA expression, SOD2; assay type: cell-based, human; details: G-361, 48 h incubation, RQ = 2^-ΔΔCt, mean ± SD, control 1.001
Experimental: as §1

[6] = tested on: melanoma line G-361; assay: Two-step cell cycle analysis (DAPI, image cytometry); assay type: cell-based, human; details: G-361, 24 h, IC50 concentration
Experimental: Cell-cycle assays was performed using NC 3000 system (Chemometec., Lillerød, Denmark) according to manufacturer’s protocol for the two-step cell cycle analysis. The G-361 cells were seeded in 12-well plates at a density of 1 × 10^5 cells/well, and the tested compounds with concentration IC50 were added when 70–80% of confluence was achieved. After 24 h of incubation with tested compounds, the cells were washed with PBS and thoroughly resuspended in 250 μL lysis buffer supplemented with 10 μg/mL DAPI. After 5 min incubation at 37 °C, cells were mixed with 250 μL stabilization buffer and loaded into the 8-chamber slide NC-Slide A8 (Chemometec., Lillerød, Denmark). Cellular fluorescence was quantified using a NucleoCounter® NC-3000™ image cytometer (Chemometec., Lillerød, Denmark). The obtained DNA content histograms were used to demarcate different phases of the cell cycle in tested samples. The experiments were performed three times with three replicates.

[7] = tested on: gastric cancer cell line MKN74; parameters: method as in PMID 22741788; details: MKN74 gastric cancer cells ref 9; cited from earlier work

Row | Structure (SMILES) | RMW (chromatographic lipophilicity parameter) [1] | -S TLC (slope of linear equation) [1] | CAT expression change [2] | Relative mRNA expression level CAT (RQ) [2] | cytotoxic to melanoma cells (MTT test) [3] | IC50 ([3]; Homo sapiens) [µM] | Relative mRNA expression level DHODH (RQ) [4] | Relative mRNA expression level SOD2 (RQ) [5] | IC50 [3] [µM] | effect on cell cycle [6] | effect on cell cycle [7]
1 | CSc1ccc(NC(=S)NNC(=O)COc2ccc(Cl)cc2Cl)cc1 [PK2, 1-(2,4-dichlorophenoxy)acetyl-4-(4-metylothiophenyl)thiosemicarbazide] | 3.2058 | 3.8253 | reduction | 0.107 ± 0.013 | cytotoxic | 108 ± 6 | 0.463 ± 0.016 | 1.486 ± 0.056 |  |  | 
2 | O=C(COc1ccc(Cl)cc1Cl)NNC(=S)Nc1ccccc1I [PK6, 1-(2,4-dichlorophenoxy)acetyl-4-(2-iodophenyl)thiosemicarbazide] | 2.8125 | 3.3436 | increased | 2.691 ± 0.127 | cytotoxic |  | 0.824 ± 0.030 | 1.249 ± 0.080 | 112 ± 4.76 |  | 
3 | O=C(COc1ccc(Cl)cc1Cl)NNC(=S)Nc1cccc2ccccc12 [PK9, 1-(2,4-dichlorophenoxy)acetyl-4-(1-naphtyl)thiosemicarbazide] | 3.1398 | 3.8345 | reduction | 0.354 ± 0.022 | cytotoxic |  | 0.375 ± 0.018 | 1.293 ± 0.100 | 113 ± 4 | no cell cycle arrest was observed | inhibited the cell cycle in S and G2 phases
